Data from patent US6811766B1, “Ultrasound imaging with contrast agent targeted to microvasculature and a vasodilator drug” (Amersham Health AS, priority 1997, dated 2004).

Legend:
[1] = system: healthy myocardial tissue; settings: adenosine vasodilatation; cited from earlier work
[2] = Heart rate under continuous dobutamine infusion; format: in vivo; settings: dog, continuous dobutamine infusion 15 μg/kg/min, stable effect; normal 100 beats per minute
Procedure: Example 1 was repeated except that a continuous infusion of dobutamine at a rate of 15 μg/kg/min was administered in place of adenosine. After a stable dobutamine effect consisting of an increase in heart rate from the normal 100 beats per minute to 150 beats per minute was obtained, the microbubble dispersion and the emulsion were intravenously injected from two syringes as a simultaneous bolus. Infusion of dobutamine was continued for another 2 minutes after the contrast agent injection.

Structure (SMILES) | increase of coronary blood flow in healthy myocardial tissue [1] | heart rate [2]
Nc1ncnc2c1ncn2[C@@H]1O[C@H](CO)[C@@H](O)[C@H]1O [adenosine] | more than 400% | 
CC(CCc1ccc(O)cc1)NCCc1ccc(O)c(O)c1 (centres unmarked) [dobutamine] |  | 150 beats per minute
